Test results from patent US10011590B2, “Crystalline forms of vilazodone hydrochloride and vilazodone free base” (DR. REDDY'S LABORATORIES LIMITED, priority 2012, dated 2018).

Test: Effect of variation of water (and solvent) content on stability and PXRD pattern of the solid form
Assay type: physicochemical
Conditions: for effect of variation of water content on stability and PXRD pattern: variation of water content within the stated range

SMILES: N#Cc1ccc2[nH]cc(CCCCN3CCN(c4ccc5oc(C(N)=O)cc5c4)CC3)c2c1 [form I of vilazodone free base, vilazodone free base]
- effect of variation of water content on stability and PXRD pattern: does not affect the stability and PXRD pattern

SMILES: Cl.N#Cc1ccc2[nH]cc(CCCCN3CCN(c4ccc5oc(C(N)=O)cc5c4)CC3)c2c1 [Form C, 2-benzofurancarboxamide, 5-[4-[4-(5-cyano-1H-indol-3-yl)butyl]-1-piperazinyl]-, hydrochloride (1:1)]
- effect of variation of water content on stability and PXRD pattern (listed as vilazodone hydrochloride crystalline form C): may not affect the stability and PXRD pattern

SMILES: Cl.N#Cc1ccc2[nH]cc(CCCCN3CCN(c4ccc5oc(C(N)=O)cc5c4)CC3)c2c1 [Form D, 2-benzofurancarboxamide, 5-[4-[4-(5-cyano-1H-indol-3-yl)butyl]-1-piperazinyl]-, hydrochloride (1:1)]
- effect of variation of water and solvents on stability and PXRD pattern (variation of water and solvent content of the mixed solvates): may not affect the stability and PXRD pattern

SMILES: Cl.N#Cc1ccc2[nH]cc(CCCCN3CCN(c4ccc5oc(C(N)=O)cc5c4)CC3)c2c1 [2-benzofurancarboxamide, 5-[4-[4-(5-cyano-1H-indol-3-yl)butyl]-1-piperazinyl]-, hydrochloride (1:1)]
- effect of variation of water content on stability and PXRD pattern: does not affect the stability and PXRD pattern

SMILES: Cl.N#Cc1ccc2[nH]cc(CCCCN3CCN(c4ccc5oc(C(N)=O)cc5c4)CC3)c2c1 [Form B, 2-benzofurancarboxamide, 5-[4-[4-(5-cyano-1H-indol-3-yl)butyl]-1-piperazinyl]-, hydrochloride (1:1)]
- effect of variation of water content on stability and PXRD pattern (listed as crystalline form B of vilazodone hydrochloride): may not affect the stability and PXRD pattern
